According to a melting point compilation (Tetko et al.; mined from patent text by program, amines drawn as free bases though some values may be those of a salt):

melting point | SMILES
61 to 62 °C | C=C(Cc1ccccc1)C(=O)O
124 to 125 °C | O=C(c1ccccc1)c1cccc2c1NCC2
150 °C | CN(C)C(=O)c1sc(C(c2ccc(Cl)cc2)c2c(Cl)cc(-n3ncc(=O)[nH]c3=O)cc2Cl)nc1-c1ccccc1 (configuration not stated)
192 to 193 °C | COCCN(C(=O)c1cnc(N2CC(C)(C)NC2=O)nc1N)c1cccc(C(F)(F)F)c1
107 to 109 °C | COc1cc(C(C)=NNC(=N)NCc2ccccc2)cc(OC)c1OC
153 to 154 °C | Cc1oc(-c2ccccc2)nc1CCc1nc(COc2cccc(CC(=O)O)c2)cs1
86 to 87 °C | c1ccc(Sc2ccc[nH]2)cc1
193 to 194 °C | COc1cc(CCN2CCC(NC(=O)c3ccccc3)CC2)cc(OC)c1OC
154 °C | Cc1cccc(-n2nc(C)c3c(Cl)c4ccccc4nc32)n1
35 to 37 °C | C=CCOc1ccc2cc(Br)ccc2c1
256 to 257 °C | CC1(C)C(=O)Oc2ccc3ccc(Cn4cnnc4)cc3c21
320 to 325 °C | CC(C)c1ccc(NC(=O)Cn2cnc3[nH]c(=O)[nH]c(=O)c32)cc1
87 to 88 °C | CCCCOCCOc1ccc(-c2ccc(N3CCCC3)c(C(C)=O)c2)cc1
75 to 77 °C | COc1ccc(-c2ccc(CC3CC=CC3)cc2)cc1
108 to 109 °C | CCOC1(NC(=O)c2ccccc2)CC1
102 to 104 °C | COc1ccc(C2(C#Cc3ccc(C(=O)O)cc3)CCCC(=O)C2)cc1OC1CCCC1 (racemic)
121 to 124 °C | Cc1cccc(NS(=O)(=O)c2ccc([N+](=O)[O-])cc2)c1
200 to 203 °C | Cc1ccc(C(=O)n2c3c(c4cc(C)ccc42)CC(C(=O)O)CC3)cc1 (configuration not stated)
231 to 233 °C | Cc1cc(-n2cncn2)cc(C#N)c1N
160 °C | CNc1nc2ccccc2cc1[N+](=O)[O-]

melting point | SMILES
108 °C | CC1C(=O)N(c2ccccc2)C(=S)N1c1ccc(Oc2ccccc2Cl)cc1 (configuration not stated)
123 °C | c1ccc(C(c2ccc3[nH]c(-c4ccccn4)nc3c2)n2ccnc2)cc1 (configuration not stated)
101 to 103 °C | CC1(C)Oc2ccc(C#N)cc2C(Sc2ccccn2)C1O (configuration not stated)
75 to 76 °C | O=C(c1ccc(I)cc1)C1(c2ccccc2F)CO1 (configuration not stated)
120 °C | COC(=O)c1cccc(Nc2ccc(OC)cc2)c1
69 to 70 °C | ClCc1cc(-c2ccccc2)no1
165 to 168 °C | O=C(O)c1ccc(NCc2ccccc2)cc1
206 to 208 °C | COC(=O)c1ccc(I)cc1Nc1ccccc1C(=O)O
84 to 86 °C | COc1ccc(P2(=O)c3ccccc3CN2c2ccccc2)cc1OC (configuration not stated)
160 to 162 °C | CC(=Cc1ccc(-c2noc3cc(Cl)ccc23)cc1)[N+](=O)[O-]
182 °C | Cc1cc(Br)cc(C(=O)Nc2ccc(F)c(C)n2)n1
220 °C | CC(=O)Oc1ccc(C(=O)Nc2ccc3ccc(Cl)nc3n2)cc1
171 °C | CN(C)c1ccc(C=CC(=O)N2CCc3c([nH]c4ccccc34)C2c2ccc3c(c2)CCO3)cn1 (configuration not stated)
210 to 212 °C | C1=C(/C=C/c2ccccc2)CCN(Cc2c[nH]c3ncccc23)C1
132 to 133 °C | COc1ccc(C2=NN(Cc3ccccc3O)C(=O)[C@H]3CCCC[C@@H]23)cc1OC (relative stereo)
128 °C | CC12CCC(C(=Cc3ccc(COc4ccccc4C(=O)O)cc3)C1=O)C2(C)C (configuration not stated)
162 to 164 °C | CCn1cc(CS(C)(=O)=O)c(=O)c2ccccc21
162 °C | Cc1c(C(C)CC(=O)O)n(Cc2ccc(Cl)cc2)c2ccc(O)cc12 (configuration not stated)
141 to 145 °C | CCCc1nc(C(C)(O)CC)c(C#N)n1Cc1ccc(-c2ccccc2-c2nnn[nH]2)cc1 (configuration not stated)
120 to 123 °C | CN1C(=O)C(c2ccccc2)NC(=O)/C1=C/c1c[nH]c2ccccc12 (configuration not stated)

melting point | SMILES
188 to 189 °C | COc1cc2ncnc(N3CCN(C(=O)NCc4cccnc4)CC3)c2cc1OC
163 to 165 °C | O=C1c2cccnc2C(=O)N1Cc1ccccc1
95 to 98 °C | O=[N+]([O-])c1ccccc1Nc1cccc(Nc2ccc(C(F)(F)F)cc2[N+](=O)[O-])c1
126 to 128 °C | CON=C(C)c1cc2c(Oc3ccc(Cl)cc3)cncc2s1
160 to 162 °C | O=C1N[C@@H](SC(c2ccccc2)(c2ccccc2)c2ccccc2)[C@@H]1CO (relative stereo)
156 to 157 °C | NNc1cc(-c2ccccc2)c2cc(Cl)ccc2n1
246 °C | CC(C)C(c1ccc2ncc(=O)[nH]c2c1)n1ccnc1 (configuration not stated)
195 to 197 °C | COC(=O)NC1=NC(c2ccc(C(C)C)cc2)CCN1 (configuration not stated)
101 to 103 °C | CC(=O)c1ccc(CC(C)OS(=O)(=O)c2ccc(C)cc2)s1 (racemic)
100 to 104 °C | O=[N+]([O-])c1cnccc1NCc1ccccc1
233 to 234 °C | COc1ccc(OCc2nc3nccnc3c(=O)[nH]2)cc1
194 to 196 °C | COc1cc(OC)c(-c2cc3ccccc3s2)cc1C=CC(=O)c1cc(OC)c(OC)c(OC)c1
188 to 189 °C | COC(=O)c1ccccc1-c1ncccc1N
136 to 138 °C | COC1(c2cc(F)cc(OCc3ccc4c(c3)CCC(=S)N4C)c2)CCOCC1
229 to 230 °C | Cc1nc2c(OCc3c(Cl)ccc(N(C)C(=O)CN4C(=O)c5ccccc5C4=O)c3Cl)cccn2c1Br
127 to 132 °C | CCc1ccc(C2C(=O)Oc3ccccc32)cc1 (configuration not stated)
70 to 71 °C | COc1c(Cl)ncnc1OCCc1ccc(Cl)cc1
139 to 140 °C | Nc1cc(C(=O)Nc2ccc(F)cc2)ccc1OC(F)(F)F
96 °C | Cn1c(=O)n(COc2ccc(Cl)cc2)c(=O)c2c1ncn2Cc1ccccc1
183 to 185 °C | COc1ccc(C2=NNC(=O)[C@H]3CC=CC[C@@H]23)cc1Cl (relative stereo)

Continued, compound first:

SMILES | melting point
Cc1cc(Br)cnc1CCCCNc1ncc(Cc2ccn(C)c(=O)c2)c(=O)[nH]1 | 203 to 204 °C
COc1cc(C(=O)N2CCC(C(=O)C3CCCCC3)CC2)c([N+](=O)[O-])cc1OC | 120 to 125 °C
CCCCCCCCCCCCSCCCc1cc(C(C)(C)C)c(O)c(C(C)(C)C)c1 | 26 to 27 °C
COCCNc1nc(C2C(=O)Nc3ccc(Br)cc32)c2cn(CCOC)nc2n1 (configuration not stated) | > 300 °C
COc1nc2cc([N+](=O)[O-])c(C)c(C(=O)N3CCCNCC3)c2nc1OC | 141 to 143 °C
O=C(Nc1cc(CCCS(=O)(=O)c2ccc(Cl)cc2)ccc1OCc1nnn[nH]1)c1cccc(OCc2nc3ccccc3s2)c1 | 189 to 191 °C
COC(=O)C1=Cc2cccc(C(F)F)c2OCC1 | 97 to 99 °C
CC12CCC(=O)C(CSc3ccccc3)=C1CCC1C2CCC2(C)C1CCC2(C)O (configuration not stated) | 123 to 130 °C
O=C(O)C1=Cc2cc(I)cc(I)c2OC1C(F)(F)F (configuration not stated) | 243 to 244 °C
CC(=O)N1CC(Oc2c(C)cccc2C)C1 | 40 to 42.5 °C
CC(C)(C)c1nc(-c2n[nH]c(=O)o2)nc(C(C)(C)C)c1O | 230 to 232 °C
COc1cc2c(cc1OC)C(=O)C(C(=O)C(F)(F)F)CS2 (configuration not stated) | 148 to 151 °C
O=C(O)c1cn(C2CC2)c2c(F)c(N3CCC(O)C3)c(F)cc2c1=O (configuration not stated) | 276 to 278 °C
CCCCc1nc2c(N)nc3ccccc3c2n1CCCCCCCCNS(=O)(=O)c1ccccc1 | 143 to 144 °C
CCCCCCOc1ccc(CC(C)C(=O)Oc2ccc(-c3ccc(F)cc3)cc2)cc1 (configuration not stated) | 78.4 to 79.5 °C
C=C(Cl)CS(=O)(=O)NC(=O)c1nc(OC)cc(OC)n1 | 125 to 130 °C
N#CC(C#N)=C1N(CCCCN2CCCCC2)CCN1CCCCN1CCCCC1 | 96 to 98 °C
CC(=CC(=O)c1cccc(C(F)(F)F)c1)N(C)C | 69 to 70 °C
O=C1CCc2cc(O)ccc21 | 185 to 187 °C
Cc1cc(Cl)c(N)c(Cl)c1 | 50 to 52 °C
CC(O)(CNC(=S)Nc1ccc(Br)cc1)C(=O)Nc1ccc([N+](=O)[O-])c(C(F)(F)F)c1 (configuration not stated) | 192 to 195 °C

SMILES | melting point
CC(=O)OCC1CC(OC(C)=O)C(n2c(Br)nc3cc(Cl)c(Cl)cc32)C1 (configuration not stated) | 122 to 125 °C
CCOC(=O)C(C)(OC)C(=O)Nc1cc(Cl)cc(Cl)c1 (configuration not stated) | 72 to 75 °C
COc1c(C)c(C)c(OC)c(CC/C(C)=C/CO)c1C | 46 °C
CCOC(=O)C(CCC#N)(C(=O)OCC)c1ncc(C)cc1[N+](=O)[O-] | 48 to 49 °C
O=C(O)c1ccc(N2CCOCC2)cc1C(=O)O | 178 to 180 °C
O=c1oc2ccccc2c(O)c1C1CC(c2ccc(-c3ccc(OCc4ccc(Br)cc4)cc3)cc2)Cc2ccccc21 (configuration not stated) | 240 °C
CC(C)(S)C(O)(Cn1cncn1)c1ccc(F)cc1F (single isomer, unassigned; (-)) | 105 °C
CN(C)c1nnc(Br)c(=O)[nH]1 | 261 to 262 °C
COC(=O)c1cccc(Oc2cccc(-c3nn(Cc4ccc(C(F)(F)P(=O)(O)O)c(Cl)c4)c(=Nc4ccc(Cl)c(Cl)c4)s3)c2)c1 | 137 to 139 °C
Cc1cc(C)cc(N2C(=O)NC(C)(C3CC3)C2=O)c1 (configuration not stated) | 121 °C
COc1cc(C2C3=C(COC3=O)Nc3ccc4nn[nH]c4c32)cc(OC)c1OC (configuration not stated) | 324 to 325 °C
CCCCCCCCCCCCCCN=C=O | 100 to 104 °C
CC(C)COC(c1cc(Cl)cc([N+](=O)[O-])c1O)c1cc(Cl)cc([N+](=O)[O-])c1O | 95 °C
C1=CCC2=C(C1)CC1=C(CC=CC1)C2 | 146 to 147 °C
COCCn1nc2c(N)nc3ncccc3c2c1CC1CCOCC1 | 230 to 233 °C
CCCCOc1ccc(CCCOC(=O)NS(=O)(=O)NCCOC(C)C)c(Oc2ncc(C(F)(F)F)cc2Cl)c1 | 91.4 to 91.6 °C
COC(=O)CCC(=O)Nc1cc(Cl)ccc1C(=O)OC | 80 to 84 °C
CNC(=O)C[C@@H](NC(=O)OCc1ccccc1)C(C)C | 190 to 191 °C
Nc1nc2ncn(O)c2c(=O)[nH]1 | > 300 °C
CCCNC(=O)n1nc(Oc2c(Cl)cc(C(F)(F)F)cc2Cl)cc1C(Cl)(Cl)Cl | 89 to 91 °C
O=C(Nn1ccc2ccccc21)C1=CCCN(CCN2CCCCC2)C1 | 65 °C
